{
  "source": "patent US12534469B2",
  "about": "(CHILDREN'S HOSPITAL MEDICAL CENTER, priority 2020, dated 2026)",
  "data": [
    {"test_system": "MOLM14 (D835Y) cells", "assay": "Combination drug screening, 10 x 10 matrix, cell viability (Cell Titer Glo)", "format": "cell-based", "conditions": "7.8 nM Venetoclax, 10×10 combination, compared with Compound 106", "experimental": "(§1) Briefly, 10 nL of compounds were acoustically dispensed into 1536-well white polystyrene tissue culture-treated plates with an Echo 550 acoustic liquid handler (Labcyte). MOLM14 (D835Y) cells were then added to compound-containing plates at a density of 500-cells/well in 5 μL of medium. A 10-point custom concentration range was used for all listed drugs. Plates were incubated for 48 hours at standard incubator conditions covered by a stainless steel gasketed lid to prevent evaporation. 48 h post compound addition, 3 μL of Cell Titer Glo (Promega) were added to each well and plates were incubated at room temperature for 15 minutes with the stainless-steel lid in place. Luminescence readings were taken using a Viewlux imager (PerkinElmer) with a 2 second exposure time per plate.\n(§2) However, different methodologies may yield different numerical scores, and different definitions of what constitutes a deviation from mere additivity vs true drug synergy.\n(§3) However, the utility in certain drug combinations vs others should not be distinguished based on cutoffs between HSA scores, because the score itself is only a relative indicator that is completely dependent on experimental design and is not an absolute number. Furthermore, the concept of what constitutes clinically meaningful drug synergy is something that is still being debated, not only between pharmacologists and physicians, but amongst pharmacologists themselves.", "values": [
      {"compound": "Gilteritinib hemifumarate [reference compound]", "concentration required to reach a similar level of potentiation as Compound 106": "substantially higher concentrations"}
    ]},
    {"test_system": "MOLM14 (D835Y) cells", "assay": "Combination drug screening, 10 x 10 matrix, cell viability (Cell Titer Glo)", "format": "cell-based", "conditions": "combination with Compound 96, 10 x 10 dataset", "experimental": "as §1, §2, §3", "values": [
      {"compound": "O=C1CC[C@H](N2Cc3c(OCc4ccc(CN5CCOCC5)cc4)cccc3C2=O)C(=O)N1", "note": "[Iberdomide]", "Interaction with Compound 96": "Antagonistic"}
    ]},
    {"test_system": "MOLM14 (D835Y) cells", "assay": "Combination drug screening, 10 x 10 matrix, cell viability (Cell Titer Glo)", "format": "cell-based", "conditions": "combination with Compound 96, 10 x 10 dataset, 48 hours", "experimental": "as §1, §2, §3", "values": [
      {"compound": "CN1C(=O)N[C@H](Cc2c[nH]c3c(Cl)cccc23)C1=O", "note": "[Necrostatin 2]", "Sum Excess HSA": 288.7},
      {"compound": "Nc1ccn([C@@H]2O[C@H](CO)[C@@H](O)C2(F)F)c(=O)n1", "note": "[Gemcitabine, reference compound]", "Sum Excess HSA": 30.69},
      {"compound": "CC1(C)CCC(c2ccc(Cl)cc2)=C(CN2CCN(c3ccc(C(=O)NS(=O)(=O)c4ccc(N[C@H](CCN5CCOCC5)CSc5ccccc5)c(S(=O)(=O)C(F)(F)F)c4)cc3)CC2)C1", "note": "[Navitoclax (ABT-263), Navitoclax, reference compound]", "Sum Excess HSA": "−227.3"},
      {"compound": "COc1cc(C(=O)O)ccc1NC(=O)[C@@H]1N[C@@H](CC(C)(C)C)[C@](C#N)(c2ccc(Cl)cc2F)[C@H]1c1cccc(Cl)c1F", "note": "[Idasanutlin]", "Sum Excess HSA": 192.3},
      {"compound": "COc1c(OCCCN2CCOCC2)ccc2c1N=C(NC(=O)c1cnc(N)nc1)N1CCN=C21", "note": "[Copanlisib]", "Sum Excess HSA": "−542.8"},
      {"compound": "CC(=O)c1c(C)c2cnc(Nc3ccc(N4CCNCC4)cn3)nc2n(C2CCCC2)c1=O", "note": "[Palbociclib, reference compound]", "Sum Excess HSA": 999.2},
      {"compound": "CCN(c1cc(-c2ccc(CN3CCOCC3)cc2)cc(C(=O)NCc2c(C)cc(C)[nH]c2=O)c1C)C1CCOCC1", "note": "[Tazemetostat, tazemetostat, reference compound]", "Sum Excess HSA": 74.36},
      {"compound": "CC1(C)CC[C@]2(NC(=O)C(C)(F)F)CC[C@]3(C)[C@H](C(=O)C=C4[C@@]5(C)C=C(C#N)C(=O)C(C)(C)[C@@H]5CC[C@]43C)[C@@H]2C1", "note": "[Omaveloxolone]", "Sum Excess HSA": 196},
      {"compound": "C[C@H]1C[C@@H]2[C@H]([C@@H](O)C[C@@]3(C)[C@H]2CC[C@]3(O)C(=O)CO)[C@@]2(C)C=CC(=O)C=C12", "note": "[Methylprednisolone, methylprednisolone, reference compound]", "Sum Excess HSA": 891},
      {"compound": "CC1(C)CCC(C)(C)c2cc(NC(=O)c3ccc(C(=O)O)cc3)ccc21", "note": "[Tamibarotene]", "Sum Excess HSA": 850.4},
      {"compound": "CC1(C)CCC(CN2CCN(c3ccc(C(=O)NS(=O)(=O)c4ccc(NCC5CCOCC5)c([N+](=O)[O-])c4)c(Oc4cnc5[nH]ccc5c4)c3)CC2)=C(c2ccc(Cl)cc2)C1", "note": "[Venetoclax (ABT-199), venetoclax, reference compound]", "Sum Excess HSA": "−549.6211"},
      {"compound": "COc1cccc2nc(-c3cccs3)nc(NN3C(=O)C=C(C)C3=O)c12", "note": "[SPC-839]", "Sum Excess HSA": "−326.8"}
    ]},
    {"test_system": "MOLM14 (D835Y) cells", "assay": "Combination drug screening, 10 x 10 matrix, cell viability (Cell Titer Glo)", "format": "cell-based", "conditions": "combination with Venetoclax, 10 x 10 dataset", "experimental": "as §1, §2, §3", "values": [
      {"compound": "Gilteritinib hemifumerate [reference compound]", "Interaction with Venetoclax": "synergize"}
    ]}
  ]
}
